Test results reported in article PMC6222646, “HIV-1 Integrase-Targeted Short Peptides Derived from a Viral Protein R Sequence” (Molecules : A Journal of Synthetic Chemistry and Natural …, 2018).
“And” between values parts separate entries of the source, which are not always exact repeats. Equal entries are not always repeated. Where a SMILES comes first, the peptide text is derived from it. [ ]: non-standard residue; d: D form. Bpa = N[C@@H](Cc1ccc(C(=O)c2ccccc2)cc1)C(=O)O

Legend:
[1] = biological target: T1, HIV-1 integrase (IN) (Human immunodeficiency virus type 1 group M subtype B, UniProt P12497); assay: In vitro integrase catalytic assay, strand transfer (ST); assay type: biochemical; details: 400 nM IN, 20 nM 32P-labeled pre-cleaved 19T/21B DNA, 37 °C, 2 h
Description: (§1) IN reactions were performed as previously described. […] Reactions were performed at 37 °C (2 h) and quenched by the addition of an equal volume of loading buffer (formamide containing 1% sodium dodecyl sulfate, 0.25% bromophenol blue, and xylene cyanol). Reaction products were separated in 16% polyacrylamide denaturing sequencing gels. Dried gels were visualized using a Typhoon 8600 instrument (GE Healthcare, Chicago, IL, USA). Densitometric analyses were performed using ImageQuant 5.1 software (GE Healthcare, Chicago, IL, USA). Data analyses (linear regression, 50% inhibitory concentration [IC50] determination, standard deviation [SD]) were performed from at least 3 independent determinations using Prism 5.0c software from GraphPad (La Jolla, CA, USA). To assay 3′-P inhibitory potency, reactions were carried out with [γ-^32P]-labeled full-length oligonucleotide 21T ([…]) annealed to the complementary oligonucleotide 21B ([…]). Formation of the shorter processed 19T products was monitored and quantified to assess enzyme performance and inhibitor potency. The ST reactions were carried out with the [γ-^32P]-labeled pre-cleaved oligonucleotide 19T ([…]) annealed to the complementary oligonucleotide 21B ([…]) and formation of integration products (longer and slower migrating than the starting 19T substrate) was monitored to assess enzyme performance and inhibitor potency.

[2] = biological target: T1, HIV-1 integrase (IN); assay: In vitro integrase catalytic assay, 3'-processing (3'-P); assay type: biochemical; details: 400 nM IN, 20 nM 32P-labeled 21T/21B DNA, 37 °C, 2 h
Description: as §1

SMILES	IC50 [1]	IC50 [2] [µM]
CC[C@H](C)[C@H](NC(=O)[C@H](CCCNC(=N)N)NC(=O)[C@H](Cc1ccccc1)NC(=O)[C@H](Cc1c[nH]cn1)NC(=O)[C@@H](NC(=O)[C@@H](N)Cc1ccccc1)[C@@H](C)CC)C(=O)NCC(N)=O [Peptide 1b, FIHFRIG-amide] (H-FIHFRIG-NH2)	7.3 ± 0.8 µM	31.5 ± 6
CC[C@H](C)[C@H](NC(=O)[C@H](CCCNC(=N)N)NC(=O)[C@H](Cc1ccccc1)NC(=O)[C@H](Cc1c[nH]cn1)NC(=O)[C@@H](NC(=O)[C@H](Cc1ccccc1)NC(C)=O)[C@@H](C)CC)C(=O)NCC(N)=O [Peptide 1c, Ac-FIHFRIG-amide] (Ac-FIHFRIG-NH2)	4.7 ± 0.3 µM	23.5 ± 3
CC[C@H](C)[C@H](NC(=O)[C@H](CCCNC(=N)N)NC(=O)[C@H](Cc1ccccc1)NC(=O)[C@H](Cc1c[nH]cn1)NC(=O)[C@@H](NC(=O)[C@@H](N)Cc1ccccc1)[C@@H](C)CC)C(=O)N[C@@H](C)C(=O)O [Peptide 2a, FIHFRIA] (H-FIHFRIA-OH)	34.7 ± 2.3 µM	> 111
CC[C@H](C)[C@H](NC(=O)[C@H](CCCNC(=N)N)NC(=O)[C@H](Cc1ccccc1)NC(=O)[C@H](Cc1c[nH]cn1)NC(=O)[C@@H](NC(=O)[C@@H](N)Cc1ccccc1)[C@@H](C)CC)C(=O)N[C@@H](C)C(N)=O [Peptide 2b, FIHFRIA-amide] (H-FIHFRIA-NH2)	60.6 ± 8 µM	> 111
CC[C@H](C)[C@H](NC(=O)[C@H](CCCNC(=N)N)NC(=O)[C@H](Cc1ccccc1)NC(=O)[C@H](Cc1c[nH]cn1)NC(=O)[C@@H](NC(=O)[C@H](Cc1ccccc1)NC(C)=O)[C@@H](C)CC)C(=O)N[C@@H](C)C(N)=O [Peptide 2c, Ac-FIHFRIA-amide] (Ac-FIHFRIA-NH2)	30.4 ± 0.7 µM	74.5 ± 7
CC[C@H](C)[C@H](NC(=O)[C@@H](N)Cc1ccccc1)C(=O)N[C@@H](Cc1c[nH]cn1)C(=O)N[C@@H](Cc1ccccc1)C(=O)N[C@@H](CCCNC(=N)N)C(=O)N[C@@H](C)C(=O)NCC(=O)O [Peptide 3a, FIHFRAG] (H-FIHFRAG-OH)	22.4 ± 1.7 µM	66.5 ± 7
CC[C@H](C)[C@H](NC(=O)[C@@H](N)Cc1ccccc1)C(=O)N[C@@H](Cc1c[nH]cn1)C(=O)N[C@@H](Cc1ccccc1)C(=O)N[C@@H](CCCNC(=N)N)C(=O)N[C@@H](C)C(=O)NCC(N)=O [Peptide 3b, FIHFRAG-amide] (H-FIHFRAG-NH2)	> 111 µM	> 111
CC[C@H](C)[C@H](NC(=O)[C@H](Cc1ccccc1)NC(C)=O)C(=O)N[C@@H](Cc1c[nH]cn1)C(=O)N[C@@H](Cc1ccccc1)C(=O)N[C@@H](CCCNC(=N)N)C(=O)N[C@@H](C)C(=O)NCC(N)=O [Peptide 3c, Ac-FIHFRAG-amide] (Ac-FIHFRAG-NH2)	28 ± 4 µM	208 ± 12
CC[C@H](C)[C@H](NC(=O)[C@H](C)NC(=O)[C@H](Cc1ccccc1)NC(=O)[C@H](Cc1c[nH]cn1)NC(=O)[C@@H](NC(=O)[C@@H](N)Cc1ccccc1)[C@@H](C)CC)C(=O)NCC(=O)O [Peptide 4a, FIHFAIG] (H-FIHFAIG-OH)	> 111 µM	> 111
CC[C@H](C)[C@H](NC(=O)[C@H](C)NC(=O)[C@H](Cc1ccccc1)NC(=O)[C@H](Cc1c[nH]cn1)NC(=O)[C@@H](NC(=O)[C@@H](N)Cc1ccccc1)[C@@H](C)CC)C(=O)NCC(N)=O [Peptide 4b, FIHFAIG-amide] (H-FIHFAIG-NH2)	> 111 µM	> 111
CC[C@H](C)[C@H](NC(=O)[C@H](C)NC(=O)[C@H](Cc1ccccc1)NC(=O)[C@H](Cc1c[nH]cn1)NC(=O)[C@@H](NC(=O)[C@H](Cc1ccccc1)NC(C)=O)[C@@H](C)CC)C(=O)NCC(N)=O [Peptide 4c, Ac-FIHFAIG-amide] (Ac-FIHFAIG-NH2)	81 ± 9 µM	> 333
CC[C@H](C)[C@H](NC(=O)[C@H](CCCNC(=N)N)NC(=O)[C@H](C)NC(=O)[C@H](Cc1c[nH]cn1)NC(=O)[C@@H](NC(=O)[C@@H](N)Cc1ccccc1)[C@@H](C)CC)C(=O)NCC(=O)O [Peptide 5a, FIHARIG] (H-FIHARIG-OH)	46.6 ± 6.5 µM	> 111
CC[C@H](C)[C@H](NC(=O)[C@H](CCCNC(=N)N)NC(=O)[C@H](C)NC(=O)[C@H](Cc1c[nH]cn1)NC(=O)[C@@H](NC(=O)[C@@H](N)Cc1ccccc1)[C@@H](C)CC)C(=O)NCC(N)=O [Peptide 5b, FIHARIG-amide] (H-FIHARIG-NH2)	> 111 µM	> 111
CC[C@H](C)[C@H](NC(=O)[C@H](CCCNC(=N)N)NC(=O)[C@H](C)NC(=O)[C@H](Cc1c[nH]cn1)NC(=O)[C@@H](NC(=O)[C@H](Cc1ccccc1)NC(C)=O)[C@@H](C)CC)C(=O)NCC(N)=O [Peptide 5c, Ac-FIHARIG-amide] (Ac-FIHARIG-NH2)	117 ± 10 µM	> 333
CC[C@H](C)[C@H](NC(=O)[C@H](CCCNC(=N)N)NC(=O)[C@H](Cc1ccccc1)NC(=O)[C@H](C)NC(=O)[C@@H](NC(=O)[C@@H](N)Cc1ccccc1)[C@@H](C)CC)C(=O)NCC(=O)O [Peptide 6a, FIAFRIG] (H-FIAFRIG-OH)	6.7 ± 1 µM	17.4 ± 2
CC[C@H](C)[C@H](NC(=O)[C@H](CCCNC(=N)N)NC(=O)[C@H](Cc1ccccc1)NC(=O)[C@H](C)NC(=O)[C@@H](NC(=O)[C@@H](N)Cc1ccccc1)[C@@H](C)CC)C(=O)NCC(N)=O [Peptide 6b, FIAFRIG-amide] (H-FIAFRIG-NH2)	35 ± 3.2 µM	95.4 ± 5
CC[C@H](C)[C@H](NC(=O)[C@H](CCCNC(=N)N)NC(=O)[C@H](Cc1ccccc1)NC(=O)[C@H](C)NC(=O)[C@@H](NC(=O)[C@H](Cc1ccccc1)NC(C)=O)[C@@H](C)CC)C(=O)NCC(N)=O [Peptide 6c, Ac-FIAFRIG-amide] (Ac-FIAFRIG-NH2)	3.5 ± 0.3 µM	94 ± 13
CC[C@H](C)[C@H](NC(=O)[C@H](CCCNC(=N)N)NC(=O)[C@H](Cc1ccccc1)NC(=O)[C@H](Cc1c[nH]cn1)NC(=O)[C@H](C)NC(=O)[C@@H](N)Cc1ccccc1)C(=O)NCC(=O)O [Peptide 7a, FAHFRIG] (H-FAHFRIG-OH)	73.5 ± 6 µM	> 111
CC[C@H](C)[C@H](NC(=O)[C@H](CCCNC(=N)N)NC(=O)[C@H](Cc1ccccc1)NC(=O)[C@H](Cc1c[nH]cn1)NC(=O)[C@H](C)NC(=O)[C@@H](N)Cc1ccccc1)C(=O)NCC(N)=O [Peptide 7b, FAHFRIG-amide] (H-FAHFRIG-NH2)	> 111 µM	> 111
CC[C@H](C)[C@H](NC(=O)[C@H](CCCNC(=N)N)NC(=O)[C@H](Cc1ccccc1)NC(=O)[C@H](Cc1c[nH]cn1)NC(=O)[C@H](C)NC(=O)[C@H](Cc1ccccc1)NC(C)=O)C(=O)NCC(N)=O [Peptide 7c, Ac-FAHFRIG-amide] (Ac-FAHFRIG-NH2)	127 ± 14 µM	> 333
CC[C@H](C)[C@H](NC(=O)[C@H](C)N)C(=O)N[C@@H](Cc1c[nH]cn1)C(=O)N[C@@H](Cc1ccccc1)C(=O)N[C@@H](CCCNC(=N)N)C(=O)N[C@H](C(=O)NCC(=O)O)[C@@H](C)CC [Peptide 8a, AIHFRIG] (H-AIHFRIG-OH)	22.7 ± 1.4 µM	86.3 ± 5
CC[C@H](C)[C@H](NC(=O)[C@H](C)N)C(=O)N[C@@H](Cc1c[nH]cn1)C(=O)N[C@@H](Cc1ccccc1)C(=O)N[C@@H](CCCNC(=N)N)C(=O)N[C@H](C(=O)NCC(N)=O)[C@@H](C)CC [Peptide 8b, AIHFRIG-amide] (H-AIHFRIG-NH2)	> 111 µM	> 111
CC[C@H](C)[C@H](NC(=O)[C@H](C)NC(C)=O)C(=O)N[C@@H](Cc1c[nH]cn1)C(=O)N[C@@H](Cc1ccccc1)C(=O)N[C@@H](CCCNC(=N)N)C(=O)N[C@H](C(=O)NCC(N)=O)[C@@H](C)CC [Peptide 8c, Ac-AIHFRIG-amide] (Ac-AIHFRIG-NH2)	46 ± 8 µM	> 333
CC[C@H](C)[C@H](NC(=O)[C@@H](N)Cc1ccccc1)C(=O)N[C@@H](Cc1c[nH]cn1)C(=O)N[C@@H](Cc1ccccc1)C(=O)N[C@@H](CCCNC(=N)N)C(=O)N[C@@H](Cc1ccc(C(=O)c2ccccc2)cc1)C(=O)NCC(=O)O [Peptide 9a, FIHFRBG] (H-FIHFR[Bpa]G-OH)	4 µM and 4.3 µM	20 ± 3
CC[C@H](C)[C@H](NC(=O)[C@H](Cc1ccc(C(=O)c2ccccc2)cc1)NC(=O)[C@H](Cc1ccccc1)NC(=O)[C@H](Cc1c[nH]cn1)NC(=O)[C@@H](NC(=O)[C@@H](N)Cc1ccccc1)[C@@H](C)CC)C(=O)NCC(=O)O [Peptide 10a, FIHFBIG] (H-FIHF[Bpa]IG-OH)	~50 µM and 48 µM	> 333
CC[C@H](C)[C@H](NC(=O)[C@H](CCCNC(=N)N)NC(=O)[C@H](Cc1ccc(C(=O)c2ccccc2)cc1)NC(=O)[C@H](Cc1c[nH]cn1)NC(=O)[C@@H](NC(=O)[C@@H](N)Cc1ccccc1)[C@@H](C)CC)C(=O)NCC(=O)O [Peptide 11a, FIHBRIG] (H-FIH[Bpa]RIG-OH)	4.2 ± 0.7 µM	34 ± 6
CC[C@H](C)[C@H](NC(=O)[C@H](CCCNC(=N)N)NC(=O)[C@H](Cc1ccccc1)NC(=O)[C@H](Cc1ccc(C(=O)c2ccccc2)cc1)NC(=O)[C@@H](NC(=O)[C@@H](N)Cc1ccccc1)[C@@H](C)CC)C(=O)NCC(=O)O [Peptide 12a, FIBFRIG] (H-FI[Bpa]FRIG-OH)	2.2 ± 0.6 µM	6.5 ± 0.9
